# Experimental data reported in US20100041642A1, “UREA INHIBITORS OF MAP KINASES” (LOCUS PHARMACEUTICALS, INC., priority 2008, published 2010).
# Molecular target: p38 (Homo sapiens, UniProt Q16539)
# Assay: Protein Kinase Assay (33P incorporation from γ-[33P]ATP into GST-ATF-2)
# Assay type: biochemical
# Settings: 2 nM p38, preincubated 20 min at 30° C.; 10 uM cold ATP, 2 uM GST-ATF2, 70 min; read-out: ACT. (Activity), IC50 category in Protein Kinase Assay
# Method: Protein Kinase Assay. The protein kinase activity of p38 was determined by measuring the incorporation of ^33P from γ-[^33P]ATP into the GST-ATF-2 substrate, amino acids 19-96 (Upstate, N.Y. USA). The reactions were carried out in a final volume of 50 μL of 24 mM Tris-HCl buffer, pH 7.5, containing 13 mM MgCl2, 12% Glycerol, 2% DMSO, 2 mM DTT, […] of γ-[^33P]ATP (1000 Ci/mmol; 1 Ci=37 GBq) (GE Healthcare, Piscataway, N.J.), 10 uM cold ATP (GE Healthcare, Piscataway, N.J.), and 2 uM GST-ATF2. Compounds were preincubated with 2 nM p38 for 20 min at 30° C.; the reactions were initiated by the addition of GST-ATF2 and ATP and incubated for 70 min at 30° C. before being stopped by the addition of 10 μL of 600 mM phosphoric acid. The phosphorylated substrate was captured on phosphocellulose 96-well plate (Millipore MAPHNOB 10), washed with 100 mM phosphoric acid, and counted in a BeckmenCoulter LS6500 liquid scintillation counter. […] (Activity).
# Sequence of p38 (Q16539 whole entry): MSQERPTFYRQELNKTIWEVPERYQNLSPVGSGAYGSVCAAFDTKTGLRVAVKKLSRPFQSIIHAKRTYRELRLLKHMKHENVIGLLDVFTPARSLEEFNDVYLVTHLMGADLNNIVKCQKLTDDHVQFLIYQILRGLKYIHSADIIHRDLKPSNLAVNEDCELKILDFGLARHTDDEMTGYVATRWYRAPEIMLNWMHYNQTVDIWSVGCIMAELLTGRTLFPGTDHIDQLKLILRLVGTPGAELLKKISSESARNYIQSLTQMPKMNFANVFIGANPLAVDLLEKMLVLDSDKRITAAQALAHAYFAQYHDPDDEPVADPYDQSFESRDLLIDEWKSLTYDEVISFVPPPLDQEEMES
row,SMILES,IC50
1,"Cc1ccc(NC(=O)Nc2cc(C(C)(C)C)sc2C(=O)N2CCN(C)C(=O)C2(C)C)cc1-c1ccc(CN2CCOCC2)nc1 [1-(5-tert-butyl-2-(2,2,4-trimethyl-3-oxopiperazine-1-carbonyl)thiophen-3-yl)-3-(4-methyl-3-(6-(morpholinomethyl)pyridin-3-yl)phenyl)urea]",< 100 nM
2,"CN(C)CCCOc1ccc(-c2cccc(NC(=O)Nc3sc(C(C)(C)C)cc3C(=O)N3CCNC(=O)C3(C)C)c2)cn1 [1-(5-tert-butyl-3-(2,2-dimethyl-3-oxopiperazine-1-carbonyl)thiophen-2-yl)-3-(3-(6-(3-(dimethylamino)propoxy)pyridin-3-yl)phenyl)urea]",< 100 nM
3,"Cc1cc(NC(=O)Nc2cc(C(C)(C)C)sc2C(=O)N2CCNC(=O)C2(C)C)cc(-c2ccc(N3CCOCC3)cn2)c1 [1-(5-tert-butyl-2-(2,2-dimethyl-3-oxopiperazine-1-carbonyl)thiophen-3-yl)-3-(3-methyl-5-(5-morpholinopyridin-2-yl)phenyl)urea]",< 100 nM
4,"COCCOc1ccc(-c2cc(NC(=O)Nc3sc(C(C)(C)C)cc3C(=O)N3CCN(C)C(=O)C3(C)C)ccc2C)cn1 [1-(5-tert-butyl-3-(2,2,4-trimethyl-3-oxopiperazine-1-carbonyl)thiophen-2-yl)-3-(3-(6-(2-methoxyethoxy)pyridin-3-yl)-4-methylphenyl)urea]",< 100 nM
5,"CN1CCN(CCCOc2ccc(-c3cccc(NC(=O)Nc4sc(C(C)(C)C)cc4C(=O)N4CCNC(=O)C4(C)C)c3)cn2)CC1 [1-(5-tert-butyl-3-(2,2-dimethyl-3-oxopiperazine-1-carbonyl)thiophen-2-yl)-3-(3-(6-(3-(4-methylpiperazin-1-yl)propoxy)pyridin-3-yl)phenyl)urea]",< 100 nM
6,"COc1ccc(-c2cc(NC(=O)Nc3sc(C(C)(C)C)cc3C(=O)N3CCN(C)C(=O)C3(C)C)ccc2C)cn1 [1-(5-tert-butyl-3-(2,2,4-trimethyl-3-oxopiperazine-1-carbonyl)thiophen-2-yl)-3-(3-(6-methoxypyridin-3-yl)-4-methylphenyl)urea]",< 100 nM
7,"COc1ccc(-c2cc(NC(=O)Nc3sc(C(C)(C)C)cc3C(=O)N3CCNC(=O)C3(C)C)ccc2C)cn1 [1-(5-tert-butyl-3-(2,2-dimethyl-3-oxopiperazine-1-carbonyl)thiophen-2-yl)-3-(3-(6-methoxypyridin-3-yl)-4-methylphenyl)urea]",< 100 nM
8,"Cc1ccc(NC(=O)Nc2cn(C(C)(C)C)nc2C(=O)N2CCN(C)C(=O)C2(C)C)cc1-c1ccc(N2CCOCC2)cn1 [1-(1-tert-butyl-3-(2,2,4-trimethyl-3-oxopiperazine-1-carbonyl)-1H-pyrazol-4-yl)-3-(4-methyl-3-(5-morpholinopyridin-2-yl)phenyl)urea]",< 100 nM
9,"CC(C)(C)c1cc(C(=O)N2CCNC(=O)C2(C)C)c(NC(=O)Nc2cccc(-c3ccc(OCCCc4ccccn4)nc3)c2)s1 [1-(5-tert-butyl-3-(2,2-dimethyl-3-oxopiperazine-1-carbonyl)thiophen-2-yl)-3-(3-(6-(3-(pyridin-2-yl)propoxy)pyridin-3-yl)phenyl)urea]",< 100 nM
10,"CCc1ccc(-c2cc(NC(=O)Nc3sc(C(C)(C)C)cc3C(=O)N3CCNC(=O)C3(C)C)ccc2C)nc1 [1-(5-tert-butyl-3-(2,2-dimethyl-3-oxopiperazine-1-carbonyl)thiophen-2-yl)-3-(3-(5-ethylpyridin-2-yl)-4-methylphenyl)urea]",< 100 nM
11,"Cc1ccc(NC(=O)Nc2cc(C(C)(C)C)sc2C(=O)N2CCNC(=O)C2(C)C)cc1-c1ccc(N2CCOCC2)nc1 [1-(5-tert-butyl-2-(2,2-dimethyl-3-oxopiperazine-1-carbonyl)thiophen-3-yl)-3-(4-methyl-3-(6-morpholinopyridin-3-yl)phenyl)urea]",< 100 nM
12,"Cc1ccc(NC(=O)Nc2cc(C(C)(C)C)sc2C(=O)N2CCN(C(C)C)C(=O)C2(C)C)cc1-c1ccc(CN2CCOCC2)nc1 [1-(5-tert-butyl-2-(4-isopropyl-2,2-dimethyl-3-oxopiperazine-1-carbonyl)thiophen-3-yl)-3-(4-methyl-3-(6-(morpholinomethyl)pyridin-3-yl)phenyl)urea]",< 100 nM
13,"Cc1ccc(NC(=O)Nc2cn(C(C)(C)C)nc2C(=O)N2CCN(C3CCN(C)C3)C(=O)C2(C)C)cc1-c1cccnc1 (stereo not shown) [1-(1-tert-butyl-3-(2,2-dimethyl-4-(1-methylpyrrolidin-3-yl)-3-oxopiperazine-1-carbonyl)-1H-pyrazol-4-yl)-3-(4-methyl-3-(pyridin-3-yl)phenyl)urea]",< 1000 nM
14,"Cc1ccc(NC(=O)Nc2sc(C(C)(C)C)cc2C(=O)N2CCNC(=O)C2(C)C)cc1-c1cnc(N2CCOCC2)nc1 [1-(5-tert-butyl-3-(2,2-dimethyl-3-oxopiperazine-1-carbonyl)thiophen-2-yl)-3-(4-methyl-3-(2-morpholinopyrimidin-5-yl)phenyl)urea]",< 100 nM

# Other lines, results leading:
row,IC50,SMILES
1,< 100 nM,"Cc1ccc(NC(=O)Nc2sc(C(C)(C)C)cc2C(=O)N2CCNC(=O)C2(C)C)cc1-c1ccncc1 [1-(5-tert-butyl-3-(2,2-dimethyl-3-oxopiperazine-1-carbonyl)thiophen-2-yl)-3-(4-methyl-3-(pyridin-4-yl)phenyl)urea]"
2,< 100 nM,"CCNC(=O)c1ccc(-c2cc(NC(=O)Nc3sc(C(C)(C)C)nc3C(=O)N3CCN(C)C(=O)C3(C)C)ccc2C)cn1 [5-(5-(3-(2-tert-butyl-4-(2,2,4-trimethyl-3-oxopiperazine-1-carbonyl)thiazol-5-yl)ureido)-2-methylphenyl)-N-ethylpyridine-2-carboxamide]"
3,< 100 nM,"COc1ccc(-c2cc(NC(=O)Nc3sc(C(C)(C)C)cc3C(=O)N3CCC(=O)N(C)CC3)ccc2C)cn1 [1-(5-tert-butyl-3-(4-methyl-5-oxo-1,4-diazepane-1-carbonyl)thiophen-2-yl)-3-(3-(6-methoxypyridin-3-yl)-4-methylphenyl)urea]"
4,< 100 nM,"Cc1ccc(NC(=O)Nc2sc(C(C)(C)C)cc2C(=O)N2CCNC(=O)C2(C)C)cc1-c1ccccn1 [1-(5-tert-butyl-3-(2,2-dimethyl-3-oxopiperazine-1-carbonyl)thiophen-2-yl)-3-(4-methyl-3-(pyridin-2-yl)phenyl)urea]"
5,< 100 nM,"Cc1ccc(NC(=O)Nc2sc(C(C)(C)C)cc2C(=O)N2CCNC(=O)C2(C)C)cc1-c1ccc(N2CCN(C)CC2)cn1 [1-(5-tert-butyl-3-(2,2-dimethyl-3-oxopiperazine-1-carbonyl)thiophen-2-yl)-3-(4-methyl-3-(5-(4-methylpiperazin-1-yl)pyridin-2-yl)phenyl)urea]"
6,< 100 nM,"CCNC(=O)c1ccc(-c2cc(NC(=O)Nc3cc(C(C)(C)C)sc3C(=O)N3CCN(C)C(=O)C3(C)C)ccc2C)cn1 [5-(5-(3-(5-tert-butyl-2-(2,2,4-trimethyl-3-oxopiperazine-1-carbonyl)thiophen-3-yl)ureido)-2-methylphenyl)-N-ethylpyridine-2-carboxamide]"
7,< 100 nM,"Cc1ccc(-c2cc(NC(=O)Nc3sc(C(C)(C)C)cc3C(=O)N3CCNC(=O)C3(C)C)ccc2C)nn1 [1-(5-tert-butyl-3-(2,2-dimethyl-3-oxopiperazine-1-carbonyl)thiophen-2-yl)-3-(4-methyl-3-(6-methylpyridazin-3-yl)phenyl)urea]"
8,< 100 nM,"Cc1ccc(NC(=O)Nc2sc(C(C)(C)C)cc2C(=O)N2CCNC(=O)C2(C)C)cc1-c1ccc(OCCN2CCCCC2)nc1 [1-(5-tert-butyl-3-(2,2-dimethyl-3-oxopiperazine-1-carbonyl)thiophen-2-yl)-3-(4-methyl-3-(6-(2-(piperidin-1-yl)ethoxy)pyridin-3-yl)phenyl)urea]"
